The values below come from PubChem BioAssay (NCI).

What all share (test): NCI tumour cell line growth inhibition, 48 h
Test [1] relates to CAKI-1 renal.
Test [2] concerns DU-145 prostate.
In test [3] the test system is HCT-116 colon.
In test [4] the test system is HT29 colon.
The test system of test [5] is KM12 colon.
The test system of test [6] is NCI-H522 lung.
Test [7] has as its system PC-3 prostate.
For test [8], the system named is U251 CNS.

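Cells were grown in 96-well plates and exposed to each compound for 48 hours at five concentrations; endpoints were interpolated linearly between bracketing concentrations, or set to the highest concentration if not reached. GI50 marks 50% less growth. TGI: total growth inhibition.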

As to `CN(/N=C/c1ccccc1O)c1ccc2ccccc2n1`, the TGI is greater than 100 µM in test [1]; 41.3 µM in test [2]; greater than 100 µM in test [3]; 90.1 µM in test [4]; 65.2 µM in test [5]; 80.9 µM in test [6]. Moreover, the results for the TGI in test [7] and in test [8] were 34.3 µM and 29.8 µM, respectively.
For the compound `COC(=O)C1=C(C(=O)ON)[C@@H]2C=C[C@@]1([C@@H](Cc1ccccc1)Nc1ccccc1)O2`, the GI50 in test [1] is 1.61 µM; in test [2] it was 1.84 µM; in test [3] it was 1.67 µM; in test [4], 1.89 µM; in test [5], 15.5 µM; in test [6], 1.48 µM. Moreover, the values for the GI50 in test [7] and in test [8] were 1.84 µM and 14.3 µM, respectively. The TGI in test [1] is 2.96 µM; in test [2], 3.67 µM; in test [3], 3.24 µM; in test [4], 3.97 µM; in test [5] it was 32.1 µM; in test [6], 3.41 µM. In addition, the TGI in test [7] was 3.74 µM; in test [8] it was 27.6 µM.
As for `C/C(CC(C)(C)N1CC1)=N\NC(=O)Nc1cccc2ccccc12`, the GI50 in test [1] is 3.73 µM; in test [2], 3.07 µM; in test [3], 3.32 µM; in test [4] it was 3.5 µM; in test [5] it was 4.13 µM; in test [6] it was 2.04 µM. In addition, the GI50 is 5.32 µM in test [7] and 3.52 µM in test [8]. The TGI was 13.2 µM in test [1]; 9.85 µM in test [2]; 11.5 µM in test [3]; 13.7 µM in test [4]; 15.7 µM in test [5]; 5.36 µM in test [6]. Moreover, the TGI was determined as 23.2 µM in test [7] and 14.4 µM in test [8].
With `Cc1ccc2[nH]c(C(=O)NN3C(=O)C(C)SC34CCC(C)CC4)c(-c3ccccc3)c2c1` (stereo not given), the GI50 was 15.6 µM in test [1]; 21.8 µM in test [2]; 15.2 µM in test [3]; 13.1 µM in test [4]; 15.4 µM in test [5]; 13 µM in test [6]. Moreover, the GI50 is 13.8 µM in test [7] and 15.7 µM in test [8]. Also, the TGI in test [1] came to 38 µM; in test [2] it was 54.3 µM; in test [3], 34.5 µM; in test [4], 29.3 µM; in test [5], 35.2 µM; in test [6], 31.1 µM. Moreover, the TGI in test [7] came out at 46 µM; in test [8], 34.1 µM.
As for `O=S(=O)(O)n1ccnc1` (tested in a mixture with another compound), the TGI in test [1], in test [2], in test [3], in test [4], in test [5] and in test [6] was greater than 100 µM each time. Besides, the TGI in test [7] and in test [8] was greater than 100 µM throughout.
`CCn1c(SCC(=O)Nc2cc(C(F)(F)F)ccc2Cl)nc2ccccc2c1=O`: the GI50 in test [1] is 24 µM; in test [2] it was 32.3 µM; in test [3], 17.4 µM; in test [4], greater than 100 µM; in test [5], greater than 100 µM; in test [7] it was 14 µM. Besides, the GI50 in test [8] is 30.3 µM. Further, the TGI in test [1], in test [2], in test [3], in test [4], in test [5] and in test [7] was greater than 100 µM each time. In test [8], this compound returned a TGI greater than 100 µM.
Take `CC1(C)CCc2c(c(N=Nc3ccccc3F)c3ccccc3c2O)O1`: the GI50 in test [1] was 31.6 µM; in test [2], 87.5 µM; in test [3], 27.7 µM; in test [5] it was 23 µM; in test [6] it was 38.6 µM; in test [7], 59.8 µM. Besides, the GI50 in test [8] is 19.4 µM. Also, the TGI in test [1] is greater than 100 µM; in test [2], greater than 100 µM; in test [3] it was greater than 100 µM; in test [5], 65.1 µM; in test [6] it was greater than 100 µM; in test [7] it was greater than 100 µM. Also, the TGI in test [8] is 37 µM.
For the compound `O=C1c2cc3c(cc2-c2c1c1ccc(F)cc1c(=O)n2C[C@H](O)[C@H](O)[C@H](O)CO)OCO3`, the GI50 is 0.199 µM in test [2]; 0.142 µM in test [4]; 0.0313 µM in test [6]; 0.204 µM in test [7]; 0.05 µM in test [8]. The TGI is 1.59 µM in test [2]; 0.397 µM in test [4]; 0.228 µM in test [6]; 14.9 µM in test [7]; 0.258 µM in test [8].
`COc1ccc(C2=NN(C(C)=O)C(c3ccc(Oc4ccnc5cc(Cl)ccc45)c(OC)c3)C2)cc1` (stereo not given): the GI50 in test [1] was greater than 100 µM; in test [2], greater than 100 µM; in test [3], 2.61 µM; in test [5] it was greater than 100 µM; in test [6], 7.57 µM; in test [8], 4.51 µM. Further, the TGI is greater than 100 µM in test [1]; greater than 100 µM in test [2]; greater than 100 µM in test [3]; greater than 100 µM in test [5]; greater than 100 µM in test [6]; 38.4 µM in test [8].
For `OCCN(CCO)c1nc(N2CCCCC2)c2nc(N(CCO)CCO)nc(N3CCCCC3)c2n1`, the TGI in test [1] is greater than 100 µM; in test [2], greater than 100 µM; in test [3], greater than 100 µM; in test [4], 40 µM; in test [5], greater than 100 µM; in test [6], 39.6 µM. In addition, the TGI in test [7] was greater than 100 µM.
As to `O=C1c2ccccc2C(=O)c2c1oc1c2c(=O)[nH]c2ccc(Cl)cc21`, the GI50 was 0.279 µM in test [2]; 0.307 µM in test [3]; 3.7 µM in test [4]; 0.447 µM in test [5]; 0.318 µM in test [6]; 0.182 µM in test [7]. The GI50 in test [8] is 0.268 µM. Besides, the TGI in test [2] turned out to be 0.781 µM; in test [3], 1.09 µM; in test [4], 12.9 µM; in test [5], 3.02 µM; in test [6], 1.4 µM; in test [7] it was 0.46 µM. For the same compound, in test [8], the TGI turned out to be 0.767 µM.
